The values that follow come from patent US8637702B2, “Derivatives of N-hydroxybenzamide for treating HIV infections” (Italfarmaco S.p.A., priority 2009, dated 2014).

One test addresses T1, HDAC10 (Homo sapiens, UniProt Q969S8).
T1 sequence (Q969S8 1-669): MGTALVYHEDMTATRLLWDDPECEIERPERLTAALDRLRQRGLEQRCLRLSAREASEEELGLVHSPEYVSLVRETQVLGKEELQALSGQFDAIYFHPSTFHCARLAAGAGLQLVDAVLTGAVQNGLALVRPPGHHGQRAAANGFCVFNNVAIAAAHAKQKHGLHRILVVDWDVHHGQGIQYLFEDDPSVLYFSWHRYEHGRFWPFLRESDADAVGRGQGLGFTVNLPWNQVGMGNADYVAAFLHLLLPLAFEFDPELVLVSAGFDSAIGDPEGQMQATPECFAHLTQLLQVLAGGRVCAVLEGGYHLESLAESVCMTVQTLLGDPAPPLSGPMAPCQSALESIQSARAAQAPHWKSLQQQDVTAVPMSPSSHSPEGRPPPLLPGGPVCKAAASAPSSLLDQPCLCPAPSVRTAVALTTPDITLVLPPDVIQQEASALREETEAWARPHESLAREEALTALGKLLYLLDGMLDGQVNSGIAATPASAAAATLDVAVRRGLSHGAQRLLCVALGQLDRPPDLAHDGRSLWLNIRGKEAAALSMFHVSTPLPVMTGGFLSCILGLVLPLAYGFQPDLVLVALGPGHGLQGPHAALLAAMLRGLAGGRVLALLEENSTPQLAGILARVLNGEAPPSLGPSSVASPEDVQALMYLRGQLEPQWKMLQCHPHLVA
Description: Inhibition of histone deacetylase isoforms, HDAC10.

A further test concerns the target T2, HDAC6 (Homo sapiens, UniProt Q9UBN7).
T2 sequence (Q9UBN7 1-1215): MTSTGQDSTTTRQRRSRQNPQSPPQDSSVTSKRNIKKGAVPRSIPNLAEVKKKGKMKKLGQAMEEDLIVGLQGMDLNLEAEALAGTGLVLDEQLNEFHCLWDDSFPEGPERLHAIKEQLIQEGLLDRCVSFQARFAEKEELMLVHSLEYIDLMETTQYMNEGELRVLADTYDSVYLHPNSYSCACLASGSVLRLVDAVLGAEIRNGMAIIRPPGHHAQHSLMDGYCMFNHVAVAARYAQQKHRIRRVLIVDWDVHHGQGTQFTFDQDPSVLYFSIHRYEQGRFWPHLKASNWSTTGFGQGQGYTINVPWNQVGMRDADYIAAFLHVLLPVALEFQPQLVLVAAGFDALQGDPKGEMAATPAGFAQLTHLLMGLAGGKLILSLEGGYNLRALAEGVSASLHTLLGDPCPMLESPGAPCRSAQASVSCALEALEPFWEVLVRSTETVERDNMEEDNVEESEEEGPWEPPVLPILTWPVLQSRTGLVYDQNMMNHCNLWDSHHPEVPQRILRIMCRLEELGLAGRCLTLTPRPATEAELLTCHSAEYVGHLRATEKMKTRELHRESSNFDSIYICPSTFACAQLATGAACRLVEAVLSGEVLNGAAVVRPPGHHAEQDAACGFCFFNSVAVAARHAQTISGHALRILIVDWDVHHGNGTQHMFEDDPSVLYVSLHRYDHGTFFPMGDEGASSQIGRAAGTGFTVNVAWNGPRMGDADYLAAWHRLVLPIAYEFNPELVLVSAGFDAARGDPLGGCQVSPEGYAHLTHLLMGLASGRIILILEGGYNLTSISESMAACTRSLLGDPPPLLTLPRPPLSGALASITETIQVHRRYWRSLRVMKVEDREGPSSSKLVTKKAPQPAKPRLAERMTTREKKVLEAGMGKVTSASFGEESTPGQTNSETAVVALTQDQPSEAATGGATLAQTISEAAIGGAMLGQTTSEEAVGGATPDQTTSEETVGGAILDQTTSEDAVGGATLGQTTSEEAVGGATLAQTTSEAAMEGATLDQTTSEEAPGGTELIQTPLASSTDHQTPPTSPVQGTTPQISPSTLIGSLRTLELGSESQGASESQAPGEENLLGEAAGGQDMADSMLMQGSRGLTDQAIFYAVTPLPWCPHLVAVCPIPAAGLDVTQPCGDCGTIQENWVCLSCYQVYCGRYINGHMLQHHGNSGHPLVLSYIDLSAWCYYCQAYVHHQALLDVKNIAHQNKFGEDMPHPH
The test is described as follows: Inhibition of histone deacetylase isoforms, HDAC6.

The target of a further test is HDAC4 (Homo sapiens, UniProt P56524). The test is described as follows: Inhibition of histone deacetylase isoforms, HDAC4.
HDAC4, sequence (P56524 whole entry, canonical isoform): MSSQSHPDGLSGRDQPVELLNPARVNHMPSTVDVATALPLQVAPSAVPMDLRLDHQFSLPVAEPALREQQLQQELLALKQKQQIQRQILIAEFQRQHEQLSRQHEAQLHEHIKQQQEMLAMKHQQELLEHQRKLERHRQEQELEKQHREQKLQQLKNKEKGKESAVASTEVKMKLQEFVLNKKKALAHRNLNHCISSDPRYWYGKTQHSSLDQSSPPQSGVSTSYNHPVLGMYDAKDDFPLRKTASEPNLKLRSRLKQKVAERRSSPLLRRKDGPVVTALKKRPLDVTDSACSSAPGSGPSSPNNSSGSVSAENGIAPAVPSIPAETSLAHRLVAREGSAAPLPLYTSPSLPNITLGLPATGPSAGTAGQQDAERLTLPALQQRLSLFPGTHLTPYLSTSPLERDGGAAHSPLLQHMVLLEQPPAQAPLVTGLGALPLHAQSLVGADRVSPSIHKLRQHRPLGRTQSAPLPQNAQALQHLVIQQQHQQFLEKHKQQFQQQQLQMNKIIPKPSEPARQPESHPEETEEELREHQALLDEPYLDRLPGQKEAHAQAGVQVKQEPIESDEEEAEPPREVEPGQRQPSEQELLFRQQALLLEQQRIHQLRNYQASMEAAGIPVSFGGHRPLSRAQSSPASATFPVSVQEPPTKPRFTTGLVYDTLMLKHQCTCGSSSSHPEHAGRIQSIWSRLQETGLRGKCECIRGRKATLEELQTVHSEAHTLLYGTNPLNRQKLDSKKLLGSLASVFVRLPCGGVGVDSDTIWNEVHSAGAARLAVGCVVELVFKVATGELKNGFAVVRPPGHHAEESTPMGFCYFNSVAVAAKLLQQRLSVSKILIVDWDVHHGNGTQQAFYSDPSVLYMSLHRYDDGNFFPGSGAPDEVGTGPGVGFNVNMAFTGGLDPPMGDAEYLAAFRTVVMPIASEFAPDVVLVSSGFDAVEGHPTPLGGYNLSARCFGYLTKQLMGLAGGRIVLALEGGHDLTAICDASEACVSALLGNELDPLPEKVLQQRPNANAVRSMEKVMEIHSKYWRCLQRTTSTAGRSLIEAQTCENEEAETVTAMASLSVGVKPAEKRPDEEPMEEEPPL
The target in another test is HDAC9 (Homo sapiens, UniProt Q9UKV0). The test is described as follows: Inhibition of histone deacetylase isoforms, HDAC9.
HDAC9, sequence (Q9UKV0 whole entry, canonical isoform): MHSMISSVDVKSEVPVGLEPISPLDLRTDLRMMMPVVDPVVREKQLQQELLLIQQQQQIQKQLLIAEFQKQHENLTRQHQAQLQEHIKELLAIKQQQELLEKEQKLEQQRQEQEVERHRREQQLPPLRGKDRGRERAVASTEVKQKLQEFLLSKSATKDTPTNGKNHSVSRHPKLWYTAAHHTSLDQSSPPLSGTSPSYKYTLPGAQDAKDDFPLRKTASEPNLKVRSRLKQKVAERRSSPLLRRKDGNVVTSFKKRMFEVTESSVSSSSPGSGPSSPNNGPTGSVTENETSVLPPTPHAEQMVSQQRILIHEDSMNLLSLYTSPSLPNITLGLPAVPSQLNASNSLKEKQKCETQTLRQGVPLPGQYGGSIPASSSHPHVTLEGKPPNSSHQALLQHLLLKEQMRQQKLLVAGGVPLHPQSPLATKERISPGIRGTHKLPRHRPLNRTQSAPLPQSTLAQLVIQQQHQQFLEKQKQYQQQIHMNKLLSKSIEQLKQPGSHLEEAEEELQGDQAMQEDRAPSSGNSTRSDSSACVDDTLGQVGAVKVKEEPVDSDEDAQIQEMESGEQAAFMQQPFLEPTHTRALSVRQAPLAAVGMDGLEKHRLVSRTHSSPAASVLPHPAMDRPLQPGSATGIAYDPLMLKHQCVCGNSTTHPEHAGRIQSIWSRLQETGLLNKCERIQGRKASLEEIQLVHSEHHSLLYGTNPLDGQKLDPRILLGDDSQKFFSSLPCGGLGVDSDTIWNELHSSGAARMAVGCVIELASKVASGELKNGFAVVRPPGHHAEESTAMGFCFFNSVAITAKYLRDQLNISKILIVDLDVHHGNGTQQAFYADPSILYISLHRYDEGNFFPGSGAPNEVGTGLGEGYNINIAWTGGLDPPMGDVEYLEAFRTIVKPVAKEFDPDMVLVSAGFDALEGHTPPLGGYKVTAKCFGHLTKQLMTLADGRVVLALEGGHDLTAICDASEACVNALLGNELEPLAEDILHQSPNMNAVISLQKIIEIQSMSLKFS
For the next test, the target named is HDAC1 (Homo sapiens, UniProt Q13547). The test is described as follows: Inhibition of histone deacetylase isoforms, HDAC1.
HDAC1, sequence (Q13547 whole entry, canonical isoform): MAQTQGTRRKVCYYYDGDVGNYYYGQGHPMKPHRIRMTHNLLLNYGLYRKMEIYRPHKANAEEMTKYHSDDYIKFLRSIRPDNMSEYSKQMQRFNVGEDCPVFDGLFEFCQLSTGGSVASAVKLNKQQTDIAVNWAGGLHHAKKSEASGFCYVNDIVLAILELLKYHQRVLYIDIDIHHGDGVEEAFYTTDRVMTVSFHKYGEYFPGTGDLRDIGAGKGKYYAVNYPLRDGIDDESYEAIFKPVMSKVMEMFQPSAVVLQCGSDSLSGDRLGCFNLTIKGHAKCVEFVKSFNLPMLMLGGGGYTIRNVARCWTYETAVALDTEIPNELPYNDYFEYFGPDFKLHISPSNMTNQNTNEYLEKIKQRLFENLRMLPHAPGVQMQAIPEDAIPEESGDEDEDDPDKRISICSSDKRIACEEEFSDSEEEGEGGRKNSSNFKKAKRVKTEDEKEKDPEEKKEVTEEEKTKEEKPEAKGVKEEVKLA
Another test addresses HDAC2 (Homo sapiens, UniProt Q92769). Description: Inhibition of histone deacetylase isoforms, HDAC2.

One may read the IC50 as the concentration that inhibits the measured activity by half.

HDAC2, sequence (Q92769 whole entry, canonical isoform): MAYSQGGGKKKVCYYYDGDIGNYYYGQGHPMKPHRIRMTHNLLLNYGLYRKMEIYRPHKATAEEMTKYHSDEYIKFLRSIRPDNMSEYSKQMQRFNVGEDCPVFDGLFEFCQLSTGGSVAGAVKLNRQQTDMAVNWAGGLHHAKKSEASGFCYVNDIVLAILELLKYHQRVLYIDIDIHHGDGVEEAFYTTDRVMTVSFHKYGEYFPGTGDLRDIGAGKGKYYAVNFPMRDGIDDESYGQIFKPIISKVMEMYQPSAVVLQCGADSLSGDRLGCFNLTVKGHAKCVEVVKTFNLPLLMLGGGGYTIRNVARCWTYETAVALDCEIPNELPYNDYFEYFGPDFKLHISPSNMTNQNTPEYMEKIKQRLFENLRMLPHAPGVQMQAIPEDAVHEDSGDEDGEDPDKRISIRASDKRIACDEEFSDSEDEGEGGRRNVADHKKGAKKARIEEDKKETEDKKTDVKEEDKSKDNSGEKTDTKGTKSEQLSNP
Description for HDAC10: (§1) Recombinant human enzymes were acquired from BPS Biosciences (CA, USA). Isoforms of Class I HDAC1, 2, 3; HDAC6, 10 of Class IIb and Class IV HDAC11 were tested using the Fluor-de-Lys fluorogenic synthetic substrate (Enzo Life Sciences, Plymouth Meeting, Pa.). […] Each inhibitor was dissolved in DMSO and then further diluted in an assay buffer. […] The assays were performed by pre-incubating each enzyme with the inhibitors for 15 minutes at 37° C. The reaction was started by adding the substrate at 37° C. and allowed to proceed for 60 minutes. The fluorescent signal was generated by adding 50 μL of a twice concentrated developer solution 2 (Enzo) containing trichostatin A 4 μM.
Description for HDAC2: (§2) Recombinant human enzymes were acquired from BPS Biosciences (CA, USA). Isoforms of Class I HDAC1, 2, 3; HDAC6, 10 of Class IIb and Class IV HDAC11 were tested using the Fluor-de-Lys fluorogenic synthetic substrate (Enzo Life Sciences, Plymouth Meeting, Pa.). […] The recombinant human HDAC8 assay was performed using HDAC8 Fluorimetric Drug Discovery Kit (Enzo) according to the manufacturer instructions. Each inhibitor was dissolved in DMSO and then further diluted in an assay buffer. […] The assays were performed by pre-incubating each enzyme with the inhibitors for 15 minutes at 37° C. The reaction was started by adding the substrate at 37° C. and allowed to proceed for 60 minutes. The fluorescent signal was generated by adding 50 μL of a twice concentrated developer solution 2 (Enzo) containing trichostatin A 4 μM.
Description for HDAC4: as §1
Description for HDAC6: as §2
Description for HDAC9: as §1

With `O=C(NO)c1ccc(NC(=O)[C@H](Cc2ccc3ccccc3c2)NC(=O)c2ccccc2)cc1` [Compound g, 4-(2(S)-benzoylamino-3-naphtalen-2-yl-propionylamino)-N-hydroxy-benzamide], the IC50 at HDAC10 is 132 nM; on HDAC6, 3620 nM; at HDAC4 it was 3110 nM; against HDAC9, 4150 nM; against HDAC1, 54.7 nM; at HDAC2, 12 nM.

Turning to `O=C(NO)c1ccc(NC(=O)[C@H](Cc2ccc3ccccc3c2)NC(=O)c2ccc3c(c2)OCO3)cc1` [Compound t, benzo[1,3]dioxole-5-carboxylic acid [1(S)-(4-hydroxycarbamoyl-phenylcarbamoyl)-2-naphtalen-2-yl-ethy]-amide], the IC50 against HDAC10 was 276 nM; against HDAC6, 618 nM; on HDAC4, above 10000 nM; at HDAC9 it was above 10000 nM; on HDAC1 it was 71.5 nM; at HDAC2 it was 29.5 nM.
